Converted amounts (≈) assume the structure as drawn.
Tests used:
Type in all cases: functional
Conditions in all cases: read-out: ED50 (the source's name)
A549 = assay: Cytotoxicity against human A549 cells
HCT-15 = assay: Cytotoxicity against human HCT-15 cells
SK-MEL-2 = assay: Cytotoxicity against human SK-MEL-2 cells
XF498 = assay: Cytotoxicity against human XF498 cells
SK-OV-3 = assay: Cytotoxicity against human SKOV3 cells

| Structure (SMILES) | EC50 (A549) [µg/mL] | EC50 (HCT-15) [µg/mL] | EC50 (SK-MEL-2) [µg/mL] | EC50 (XF498) [µg/mL] | EC50 (SK-OV-3) [µg/mL] |
| --- | --- | --- | --- | --- | --- |
| C#C/C=C\CCCCCCCCCCCCCC/C=C/CCCC/C=C/CCCCC#C[C@@H](O)C#CCCCCCCCC[C@H](O)C#C [PETROTETRAYNDIOL B] | 1.7 (≈ 2.59 µM) | 3.7 (≈ 5.63 µM) | 1.9 (≈ 2.89 µM) | > 3 | 2.2 (≈ 3.35 µM) |
| C#C/C=C\CCCCCCCCCCCCCC/C=C/CCCC/C=C/CC/C=C/C#C[C@@H](O)C#CCCCCCC/C=C/[C@H](O)C#C [PETROTETRAYNDIOL A] | 1.6 (≈ 2.45 µM) | 1 (≈ 1.53 µM) | 0.9 (≈ 1.38 µM) | 1.7 (≈ 2.6 µM) | 0.5 (≈ 0.766 µM) |
| C#C/C=C/[C@@H](O)CCCCCCCCC/C=C/CC#CCCCCCC/C=C/[C@H](O)C#C [DIDEOXYPETROSYNOL E] | 1.3 (≈ 2.98 µM) | 0.8 (≈ 1.83 µM) | 0.1 (≈ 0.229 µM) | 0.6 (≈ 1.37 µM) | 0.1 (≈ 0.229 µM) |
| C#C[C@@H](O)/C=C/CCCCCCC#CC/C=C/C/C=C/CCCCCCCC[C@H](O)C#C [DIDEOXYPETROSYNOL F] | > 3 | > 3 | > 3 | > 3 | > 3 |
| COc1cccc2c1C(=O)c1c(O)c3c(c(O)c1C2=O)C[C@@](O)(C(=O)CO)C[C@@H]3O[C@H]1C[C@H](N)[C@H](O)[C@H](C)O1 [DOXORUBICIN] | 0.1 (≈ 0.184 µM) | 0.9 (≈ 1.66 µM) | 0.2 (≈ 0.368 µM) | 0.2 (≈ 0.368 µM) | 0.2 (≈ 0.368 µM) |
| C#C/C=C\CCCCCCCCCCCCCC/C=C/CCCC/C=C/CCCCC#C[C@@H](O)C#CCCCCCC/C=C/[C@H](O)C#C | 1.1 (≈ 1.68 µM) | 1 (≈ 1.53 µM) | 1.1 (≈ 1.68 µM) | 1.7 (≈ 2.6 µM) | 0.6 (≈ 0.916 µM) |
| C#CC(O)/C=C/CCCCCCC#CC/C=C/CCCCCCCCC/C=C/C(O)C#C (stereo not given) | 1.4 (≈ 3.21 µM) | 1.2 (≈ 2.75 µM) | 0.2 (≈ 0.458 µM) | 1.2 (≈ 2.75 µM) | 0.1 (≈ 0.229 µM) |

Source: ChEMBL document CHEMBL1141820, “Cytotoxic polyacetylenes from the marine sponge Petrosia sp” (1999)
